Data published in US4507485A, “3,4-Disubstituted-1,2,5-oxadiazoles having histamine H2 -receptor antagonist activity” (Bristol-Myers Company, priority 1984, dated 1985).

Tests used:
gastric secretion = conditions: cited from earlier work
[1] = in vivo; cited from earlier work
histamine H2-receptor = conditions: cited from earlier work; for histamine H2-antagonist potency/effectiveness: compared with burimamide or metiamide
[2] = tested on: gastric secretion (Heidenhain pouch dog); assay: Gastric antisecretory activity in the Heidenhain pouch dog; format: in vivo, dog (female); conditions: iv; for ED50: Canis lupus familiaris, histamine infusion
Procedure: Prior to surgery, hematology and blood chemistry profiles are obtained and an assessment made as to the general health of selected female dogs. Dogs are vaccinated with Tissue Vax 5 (DHLP--Pitman-Moore) and housed in general animal quarters for four weeks' observation so incipient diseases may become apparent. Dogs are fasted with water ad libitum 24 hours prior to surgery.
Anesthesia is induced with Sodium Pentothal (Abbott) 25-30 mg/kg iv. Subsequent anesthesia is maintained with methoxyflurane (Pitman-Moore). A mid-line linea alba incision from xiphoid to umbilicus provides good exposure and ease of closure. The stomach is pulled up into the operative field, the greater curvature stretched out at multiple points and clamps placed along the selected line of incision. The pouch is made from the corpus of the stomach so that true parietal cell juice is obtained. About 30% of the corpus volume is resected. […]
Ninety minutes' infusion are allowed for the dogs to reach a steady state of acid output. […] Each sample is measured to the nearest 0.5 ml and titratable acidity is determined by titrating a 1 ml sample to pH 7.0 with 0.2N NaOH, using an Autoburet and an electrometric pH meter (Radiometer). Titratable acid output is calculated in microequivalents by multiplying the volume in milliliters by the acid concentration in milliequivalents per liter.
Results are expressed as percent inhibition relative to control readings and the response is the average for five days at that dose level.

[3] = tested on: gastric secretion (gastric fistula rat); histamine H2-receptor; assay: Gastric antisecretory activity in the gastric fistula rat; format: in vivo, rat (male Long Evans); conditions: sc; for Potency Ratio: relative to cimetidine = 1.0
Procedure: Male Long Evans rats weighing about 240-260 grams at the time of cannula implantation are used. […] The fistula components are designed and the operative procedure is carried out exactly as described in the above reference. Post operatively the animals are individually housed in solid bottom cages with sawdust and are allowed food and water ad libitum throughout the entire recovery period. Animals are not used for test purposes for at least 15 days after the operative procedure. The animals are fasted but allowed water ad libitum for 20 hours before the testing procedure is to begin. […] The catheter is then screwed into the cannula in place of the plugging screw and the rat is placed in a clear plastic rectangular cage measuring 40 cm long, 15 cm wide and 13 cm high. The bottom of the cage has a slit approximately 1.5 cm wide and 25 cm long running down the center to accommodate the catheter which hangs through it. […] Chem. Path. […] Gastric secretions collected during the first hour after washing the stomach are discarded as they may be contaminated. For oral evaluation, the catheter is then removed from the cannula and replaced with the plugging screw. […] After this time the plugging screw is removed and replaced with a catheter to which a small plastic vial has been attached to collect the gastric secretions. […] The secretions in the second sample are compared to those of the control sample in order to determine the effects of the test drug. […] Results are expressed as percent inhibition relative to control readings. Dose response curves are constructed and ED50 values are calculated by regression analyses. At least three rats are used at each dosage level and a minimum of three dosage levels are utilized for determination of a dose response curve.

[4] = in vivo; cited from earlier work; remark: listed apart in the source
peptic ulcer disease = conditions: clinical evaluation; cited from earlier work

| SMILES | toxicity (agranulocytosis) [1] | histamine H2-antagonist potency/effectiveness (histamine H2-receptor) | ED50 [2] | ED50 [3] | Potency Ratio [3] | also measured |
| --- | --- | --- | --- | --- | --- | --- |
| CNC(=S)NCCSCc1[nH]cnc1C [Metiamide] | toxicity (agranulocytosis) | more potent than burimamide | – | – | – | oral activity in man (gastric secretion; oral, man): orally active in man |
| CNC(=C[N+](=O)[O-])NCCSCc1ccc(CN(C)C)o1 [Ranitidine] | – | – | 0.054 mg/kg | – | – | – |
| Nc1nonc1NCCCOc1cccc(CN2CCCCC2)c1 [Example 1, 3-Amino-4-[3-(3-piperidinomethylphenoxy)propylamino]-1,2,5-oxadiazole] | – | – | 0.03 mg/kg | 0.18 µmol/kg | 19.3 | Potency Ratio ([2]; relative to ranitidine = 1.0): 1.8 |
| CN(C)Cc1ccc(CSCCNc2nonc2N)o1 [Example 2, 3-Amino-4-{2-[(5-dimethylaminomethyl-2-furyl)methylthio]ethylamino}-1,2,5-oxadiazole] | – | – | – | 5 µmol/kg | 0.70 | – |
| CNC(=S)NCCCCc1cnc[nH]1 [Burimamide] | – | – | – | – | – | inhibition of gastric secretion (gastric secretion; animals, including man): inhibits gastric secretion in animals, including man; oral absorption [4]: poor; clinical effectiveness as histamine H2-receptor antagonist (histamine H2-receptor; clinical): first clinically effective |
| CN=C(NC#N)NCCSCc1[nH]cnc1C [Cimetidine] | without producing agranulocytosis | as effective an histamine H2 -antagonist as metiamide | – | – | – | therapeutic effect in peptic ulcer disease (peptic ulcer disease): effective therapeutic agent in the treatment of peptic ulcer disease |
